Our source for the IC50 and inhibition values is patent US11040957B2, “Heteroaromatic compounds useful for the treatment of proliferative diseases” (Syros Pharmaceuticals, Inc., priority 2013, dated 2021).

As usually defined, the inhibition is the share of the control response that was lost under treatment.

In one assay the target is T1, MLK3 (Homo sapiens, UniProt Q16584).
T1 construct: purchased Life Technologies (Grand Island, N.Y.), LA[…] kinase assay service
Put plainly: LANTHASCREEN EU kinase assay, MLK3. The format is binding. The following applies: calculated; read-out: C50 against MLK3. As to the method: Compounds of the invention were assayed for activity against a variety of different kinases at Life Technologies™ (Grand Island, N.Y.) using their commercially available ADAPTA® (for CDK7, CDK9/cyclin T1, and IRAK1 kinases), Z′-LYTE® (for CDK1, CDK2, CDK5/p25, CDK5/p35, JNK1 and JNK2 kinases) and LANTHASCREEN EU® (for CDK8, CDK9/cyclin K and MLK3) kinase assay services. […] For CDK7, test compounds were tested at concentrations ranging from 10 μM down to 0.514 nM in a series of 3-fold serial dilutions. Details of these assays, including substrates used for each kinase, are available on the Life Technologies web site (www.lifetechnologies.com/). The results of the assay are shown below in Tables 2A and 2B. […] The co-factors used for each kinase in the assays were as follows CDK1—cyclin B; CDK2—cyclin A; CDK5—p25 or p35 as indicated; CDK7—cyclin H and MNAT1; CDK8—cyclin C; CDK9—cyclin K or cyclin T1 as indicated; IRAK1—Histone H3 (1-20) peptide; JNK1—none required; JNK2—none required; MLK3—none required.

A further assay addresses T2, CDK5/p25 (Homo sapiens, UniProt Q00535).
T2 construct: purchased Life Technologies (Grand Island, N.Y.), Z'-LYTE kinase assay service
The assay can be described thus: Z'-LYTE kinase assay, CDK5/p25. The format is biochemical. As to the method: (§1) Compounds of the invention were assayed for activity against a variety of different kinases at Life Technologies™ (Grand Island, N.Y.) using their commercially available ADAPTA® (for CDK7, CDK9/cyclin T1, and IRAK1 kinases), Z′-LYTE® (for CDK1, CDK2, CDK5/p25, CDK5/p35, JNK1 and JNK2 kinases) and LANTHASCREEN EU® (for CDK8, CDK9/cyclin K and MLK3) kinase assay services. Test compounds were tested at 100 nM and 1 μM final concentrations in 1% DMSO against all kinases except CDK7. For CDK7, test compounds were tested at concentrations ranging from 10 μM down to 0.514 nM in a series of 3-fold serial dilutions. Details of these assays, including substrates used for each kinase, are available on the Life Technologies web site (www.lifetechnologies.com/). The results of the assay are shown below in Tables 2A and 2B. […] The co-factors used for each kinase in the assays were as follows CDK1—cyclin B; CDK2—cyclin A; CDK5—p25 or p35 as indicated; CDK7—cyclin H and MNAT1; CDK8—cyclin C; CDK9—cyclin K or cyclin T1 as indicated; IRAK1—Histone H3 (1-20) peptide; JNK1—none required; JNK2—none required; MLK3—none required.

Another assay deals with Jurkat cells. Put plainly: Inhibition of proliferation of Jurkat cells ([…]-GLO, 72 hour). The format is cell-based. The note with it: Homo sapiens. The method, then: Representative compounds of the invention were tested at different concentrations (from 10 μM to […]; 0.5 log serial dilutions) for their ability to inhibit the proliferation of Jurkat cells. Cells were grown in RPMI 1640+10% FBS+1% Glutamax supplemented with FBS (Life Technologies) and 100 U.mL^−1 penicillin, 100 μg·mL^−1 streptomycin (Invitrogen) and cultured at 37° C. in a humidified chamber in the presence of 5% CO2. Proliferation assays were conducted over a 72 hour time period. […]-GLO® (Promega Corporation, Madison, Wis. USA) was used to assess the anti-proliferative effects of the compounds following manufacturer's directions and utilizing the reagents supplied with the […]-GLO® kit. In this table, “A” represents an IC50 of less than 500 nM; “B” an IC50 of between 500 nM and 5 μM; and “C” an IC50 of greater than 5 μM.

Another assay deals with T3, CDK1 (Homo sapiens, UniProt P06493).
T3 construct: purchased Life Technologies (Grand Island, N.Y.), Z'-LYTE kinase assay service
Put plainly: Z'-LYTE kinase assay, CDK1. The format is biochemical. The following applies: cyclin B co-factor. As to the method:
as §1

The next assay addresses T4, CDK2 (Homo sapiens, UniProt P24941).
T4 construct: purchased Life Technologies (Grand Island, N.Y.), Z'-LYTE kinase assay service
Put plainly: Z'-LYTE kinase assay, CDK2. The format is biochemical. The note with it: cyclin A co-factor. The method, then: as §1

The target in the next assay is T5, CDK9/cyclin K (Homo sapiens, UniProt P50750).
T5 construct: purchased Life Technologies (Grand Island, N.Y.), LANTHASCREEN EU kinase assay service
Put plainly: LANTHASCREEN EU kinase assay, CDK9/cyclin K. The format is binding. The following applies: cyclin K co-factor. The method, then: as §1
A general note: TR-FRET usually uses a lanthanide donor and a delayed reading to cut background.

The target of a further assay is T6, CDK9/cyclin T1 (Homo sapiens, UniProt P50750).
T6 construct: purchased Life Technologies (Grand Island, N.Y.), ADAPTA kinase assay service
The assay can be described thus: ADAPTA kinase assay, CDK9/cyclin T1. The class given is biochemical. The note with it: cyclin T1 co-factor. The method, then: as §1

In a further assay the target is T7, CDK7 (Homo sapiens, UniProt P50613).
T7 construct: purchased Life Technologies (Grand Island, N.Y.), ADAPTA kinase assay service
The assay can be described thus: ADAPTA kinase assay, CDK7 (Life Technologies). The class given is biochemical. The following applies: co-factors cyclin H and MNAT1; 10 μM down to 0.514 nM, 3-fold serial dilutions; read-out: CDK7 calculated IC50.

The target in another assay is T8, CDK8 (Homo sapiens, UniProt P49336).
T8 construct: purchased Life Technologies (Grand Island, N.Y.), LA[…] kinase assay service
The assay can be described thus: LANTHASCREEN EU kinase assay, CDK8. The class given is binding. The following applies: cyclin C co-factor. As to the method:
as §1

A further assay concerns the target T9, JNK2 (Homo sapiens, UniProt P45984).
T9 construct: purchased Life Technologies (Grand Island, N.Y.), Z'-LYTE kinase assay service
Put plainly: Z'-LYTE kinase assay, JNK2. The format is biochemical. As to the method: as §1

The target in a further assay is T10, CDK5/p35 (Homo sapiens, UniProt Q00535).
T10 construct: purchased Life Technologies (Grand Island, N.Y.), Z'-LYTE kinase assay service
The assay can be described thus: Z'-LYTE kinase assay, CDK5/p35. The format is biochemical. The following applies: p35 co-factor. As to the method: as §1

A further assay has as its target T11, JNK1 (Homo sapiens, UniProt P45983).
T11 construct: purchased Life Technologies (Grand Island, N.Y.), Z'-LYTE kinase assay service
The assay can be described thus: Z'-LYTE kinase assay, JNK1. The format is biochemical. As to the method: as §1

T2 sequence (Q00535 whole entry): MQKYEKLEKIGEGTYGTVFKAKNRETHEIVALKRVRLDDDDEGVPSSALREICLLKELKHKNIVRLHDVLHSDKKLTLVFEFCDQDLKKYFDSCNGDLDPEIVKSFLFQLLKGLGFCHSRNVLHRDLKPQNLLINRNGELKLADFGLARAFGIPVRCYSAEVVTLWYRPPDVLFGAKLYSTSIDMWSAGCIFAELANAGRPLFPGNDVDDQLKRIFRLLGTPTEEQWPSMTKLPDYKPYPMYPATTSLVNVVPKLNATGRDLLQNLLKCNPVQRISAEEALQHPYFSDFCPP
T2 sequence (Q15078 99-307 partner limits assumed): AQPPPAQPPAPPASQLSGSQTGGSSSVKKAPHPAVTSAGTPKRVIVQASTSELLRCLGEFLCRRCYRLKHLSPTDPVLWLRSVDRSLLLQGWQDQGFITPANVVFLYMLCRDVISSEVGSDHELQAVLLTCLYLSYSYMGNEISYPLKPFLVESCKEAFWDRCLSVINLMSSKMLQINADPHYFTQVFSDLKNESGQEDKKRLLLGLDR
T11 sequence (P45983 whole entry): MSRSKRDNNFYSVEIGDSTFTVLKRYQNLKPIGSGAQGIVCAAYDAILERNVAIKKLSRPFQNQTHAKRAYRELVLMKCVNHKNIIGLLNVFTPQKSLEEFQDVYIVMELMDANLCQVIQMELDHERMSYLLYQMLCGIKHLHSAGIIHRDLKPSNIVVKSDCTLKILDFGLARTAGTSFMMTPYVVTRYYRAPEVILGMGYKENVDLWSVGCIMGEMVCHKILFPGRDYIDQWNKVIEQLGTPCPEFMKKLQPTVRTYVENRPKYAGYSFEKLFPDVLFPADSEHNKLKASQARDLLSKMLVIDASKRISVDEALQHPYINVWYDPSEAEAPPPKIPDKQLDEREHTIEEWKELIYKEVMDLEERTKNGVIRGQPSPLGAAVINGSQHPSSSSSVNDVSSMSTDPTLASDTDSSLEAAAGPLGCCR
T9 sequence (P45984 whole entry): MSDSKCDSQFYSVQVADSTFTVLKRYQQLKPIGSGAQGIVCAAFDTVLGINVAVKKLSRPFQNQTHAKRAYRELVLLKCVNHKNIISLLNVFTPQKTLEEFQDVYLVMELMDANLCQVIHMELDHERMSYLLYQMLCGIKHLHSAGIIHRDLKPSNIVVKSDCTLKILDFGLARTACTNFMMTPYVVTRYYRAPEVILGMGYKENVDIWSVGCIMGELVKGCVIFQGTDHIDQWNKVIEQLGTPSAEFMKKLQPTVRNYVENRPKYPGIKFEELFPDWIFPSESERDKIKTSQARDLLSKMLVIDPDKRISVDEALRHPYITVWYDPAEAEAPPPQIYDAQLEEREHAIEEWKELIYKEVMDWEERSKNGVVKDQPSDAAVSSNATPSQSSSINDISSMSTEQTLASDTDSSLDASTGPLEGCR
T5 sequence (P50750 whole entry): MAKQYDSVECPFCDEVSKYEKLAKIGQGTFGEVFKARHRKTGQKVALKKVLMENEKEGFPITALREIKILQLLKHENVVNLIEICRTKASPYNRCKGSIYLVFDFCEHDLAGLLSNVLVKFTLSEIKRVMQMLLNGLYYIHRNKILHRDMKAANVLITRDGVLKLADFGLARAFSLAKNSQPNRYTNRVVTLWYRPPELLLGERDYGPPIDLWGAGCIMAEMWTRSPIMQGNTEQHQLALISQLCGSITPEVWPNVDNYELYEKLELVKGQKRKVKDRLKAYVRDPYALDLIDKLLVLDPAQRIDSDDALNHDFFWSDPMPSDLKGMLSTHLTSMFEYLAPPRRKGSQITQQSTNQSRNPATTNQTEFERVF
T5 sequence (O75909 whole entry partner): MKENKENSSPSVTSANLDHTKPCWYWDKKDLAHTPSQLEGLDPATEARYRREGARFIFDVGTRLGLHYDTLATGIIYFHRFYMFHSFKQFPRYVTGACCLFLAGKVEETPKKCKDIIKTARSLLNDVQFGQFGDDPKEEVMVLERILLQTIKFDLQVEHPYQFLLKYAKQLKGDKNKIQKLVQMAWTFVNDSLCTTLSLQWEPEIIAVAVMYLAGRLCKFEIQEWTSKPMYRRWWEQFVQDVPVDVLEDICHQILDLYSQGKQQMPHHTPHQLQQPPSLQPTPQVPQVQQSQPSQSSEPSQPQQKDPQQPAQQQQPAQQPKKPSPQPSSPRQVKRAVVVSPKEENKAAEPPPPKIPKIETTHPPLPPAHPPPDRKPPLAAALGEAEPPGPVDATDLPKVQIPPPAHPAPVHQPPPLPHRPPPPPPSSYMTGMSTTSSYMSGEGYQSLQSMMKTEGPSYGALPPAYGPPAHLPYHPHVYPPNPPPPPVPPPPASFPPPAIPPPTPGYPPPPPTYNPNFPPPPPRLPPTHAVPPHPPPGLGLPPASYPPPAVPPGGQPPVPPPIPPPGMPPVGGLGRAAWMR
T6 sequence (P50750 whole entry): as the sequence (P50750 whole entry) above
T6 sequence (O60563 whole entry partner): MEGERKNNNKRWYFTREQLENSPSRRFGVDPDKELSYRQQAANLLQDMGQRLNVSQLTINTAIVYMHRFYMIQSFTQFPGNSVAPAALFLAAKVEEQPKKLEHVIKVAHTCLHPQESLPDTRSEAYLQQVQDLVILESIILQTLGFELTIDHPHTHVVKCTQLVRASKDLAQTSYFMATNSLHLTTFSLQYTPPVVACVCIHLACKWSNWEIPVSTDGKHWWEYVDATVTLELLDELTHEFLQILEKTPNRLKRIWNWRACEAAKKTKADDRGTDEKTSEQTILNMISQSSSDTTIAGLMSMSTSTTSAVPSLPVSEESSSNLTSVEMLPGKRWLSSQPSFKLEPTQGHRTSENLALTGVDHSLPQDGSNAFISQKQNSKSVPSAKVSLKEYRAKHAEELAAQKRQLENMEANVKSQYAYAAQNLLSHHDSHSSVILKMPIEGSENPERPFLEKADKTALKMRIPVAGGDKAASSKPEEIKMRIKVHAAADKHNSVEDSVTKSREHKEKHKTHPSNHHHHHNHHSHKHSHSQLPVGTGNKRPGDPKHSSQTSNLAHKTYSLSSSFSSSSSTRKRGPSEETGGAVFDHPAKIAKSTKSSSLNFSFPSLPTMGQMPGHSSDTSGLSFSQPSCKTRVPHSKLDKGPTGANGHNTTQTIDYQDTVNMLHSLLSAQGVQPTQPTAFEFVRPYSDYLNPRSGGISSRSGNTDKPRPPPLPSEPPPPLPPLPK
T7 sequence (P50613 whole entry): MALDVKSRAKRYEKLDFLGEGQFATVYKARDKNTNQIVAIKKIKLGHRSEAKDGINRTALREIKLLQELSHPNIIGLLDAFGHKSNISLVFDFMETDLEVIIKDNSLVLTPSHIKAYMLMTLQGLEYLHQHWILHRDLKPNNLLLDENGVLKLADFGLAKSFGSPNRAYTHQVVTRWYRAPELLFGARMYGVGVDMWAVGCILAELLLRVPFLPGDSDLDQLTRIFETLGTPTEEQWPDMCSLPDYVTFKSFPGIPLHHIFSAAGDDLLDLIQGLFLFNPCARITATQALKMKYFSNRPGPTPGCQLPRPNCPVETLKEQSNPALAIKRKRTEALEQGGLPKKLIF
T7 sequence (P51946 whole entry partner): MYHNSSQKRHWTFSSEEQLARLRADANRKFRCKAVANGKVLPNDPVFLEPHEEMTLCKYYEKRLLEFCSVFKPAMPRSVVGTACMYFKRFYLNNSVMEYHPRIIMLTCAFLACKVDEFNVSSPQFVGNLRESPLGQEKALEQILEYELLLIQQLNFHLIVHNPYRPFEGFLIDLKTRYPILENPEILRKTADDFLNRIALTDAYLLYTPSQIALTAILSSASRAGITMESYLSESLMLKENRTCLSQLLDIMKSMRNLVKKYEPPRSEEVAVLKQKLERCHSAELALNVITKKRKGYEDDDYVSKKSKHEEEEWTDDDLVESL
T7 sequence (P51948 whole entry partner): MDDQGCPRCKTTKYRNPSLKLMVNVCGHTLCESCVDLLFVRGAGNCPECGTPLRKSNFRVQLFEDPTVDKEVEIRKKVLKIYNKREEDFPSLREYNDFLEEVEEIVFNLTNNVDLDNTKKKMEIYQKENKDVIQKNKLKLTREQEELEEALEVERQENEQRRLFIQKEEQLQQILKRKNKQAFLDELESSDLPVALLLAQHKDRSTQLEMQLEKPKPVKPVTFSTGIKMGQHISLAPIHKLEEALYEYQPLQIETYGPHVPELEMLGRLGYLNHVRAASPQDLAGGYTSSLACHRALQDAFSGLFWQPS
T8 sequence (P49336 whole entry): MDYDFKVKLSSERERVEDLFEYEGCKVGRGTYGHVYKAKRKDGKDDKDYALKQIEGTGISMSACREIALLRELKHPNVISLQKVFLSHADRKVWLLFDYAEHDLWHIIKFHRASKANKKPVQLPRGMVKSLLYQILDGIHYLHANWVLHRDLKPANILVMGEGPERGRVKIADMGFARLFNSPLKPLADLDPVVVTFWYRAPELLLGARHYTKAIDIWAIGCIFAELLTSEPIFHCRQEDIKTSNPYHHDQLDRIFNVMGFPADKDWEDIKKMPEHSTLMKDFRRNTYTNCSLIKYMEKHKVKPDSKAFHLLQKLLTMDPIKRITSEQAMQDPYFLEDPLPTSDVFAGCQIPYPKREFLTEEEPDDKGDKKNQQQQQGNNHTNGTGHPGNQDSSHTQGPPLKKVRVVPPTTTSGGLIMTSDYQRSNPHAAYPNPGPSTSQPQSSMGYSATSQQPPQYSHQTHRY
T8 sequence (P24863 whole entry partner): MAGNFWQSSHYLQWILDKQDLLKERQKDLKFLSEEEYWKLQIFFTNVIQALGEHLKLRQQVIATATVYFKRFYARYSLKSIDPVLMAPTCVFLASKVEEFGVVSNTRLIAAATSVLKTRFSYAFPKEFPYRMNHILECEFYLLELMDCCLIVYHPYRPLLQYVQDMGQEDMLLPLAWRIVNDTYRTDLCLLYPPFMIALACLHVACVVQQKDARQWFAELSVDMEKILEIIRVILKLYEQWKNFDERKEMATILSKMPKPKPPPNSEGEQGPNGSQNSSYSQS
Procedure for CDK7: Test compounds were tested at 100 nM and 1 μM final concentrations in 1% DMSO against all kinases except CDK7. For CDK7, test compounds were tested at concentrations ranging from 10 μM down to 0.514 nM in a series of 3-fold serial dilutions. […] The co-factors used for each kinase in the assays were as follows CDK1—cyclin B; CDK2—cyclin A; CDK5—p25 or p35 as indicated; CDK7—cyclin H and MNAT1; CDK8—cyclin C; CDK9—cyclin K or cyclin T1 as indicated; IRAK1—Histone H3 (1-20) peptide; JNK1—none required; JNK2—none required; MLK3—none required.

As for `CN(C)C/C=C/C(=O)Nc1ccc(C(=O)N2CCCC(Nc3ncc(Cl)c(-c4c[nH]c5ccccc45)n3)C2)cc1` (stereo not drawn) [Compound 100, (E)-N-(4-(3-(5-chloro-4-(1H-indol-3-yl)pyrimidin-2-ylamino)piperidine-1-carbonyl)phenyl)-4-(dimethylamino)but-2-enamide], the IC50 is 3.2 µM at MLK3; 3 µM at CDK5/p25 (p25 as co-factor, calculated, read-out: IC50 against CDK5); less than 0.5 µM in the assay with Jurkat cells.

Take `CN(C)C/C=C/C(=O)Nc1ccc(C(=O)N2CCCC(CNc3ncc(Cl)c(-c4c[nH]c5ccccc45)n3)C2)cc1` (stereo not drawn) [Compound 101, (E)-N-(4-(3-((5-chloro-4-(1H-indol-3-yl)pyrimidin-2-ylamino)methyl)piperidine-1-carbonyl)phenyl)-4-(dimethylamino)but-2-enamide]: the inhibition at 0.1 µM was less than 50% against CDK1 (compound tested at 100 nM); less than 50% against CDK2 (compound tested at 100 nM); less than 50% at CDK9/cyclin K (compound tested at 100 nM); less than 50% on CDK9/cyclin T1 (compound tested at 100 nM); less than 50% at CDK8 (compound tested at 100 nM); less than 50% against CDK5/p25 (compound tested at 100 nM, p25 co-factor). Moreover, the inhibition at 0.1 µM is less than 50% at JNK2 (compound tested at 100 nM), less than 50% against CDK5/p35 (compound tested at 100 nM) and 50 to 70% against JNK1 (compound tested at 100 nM). For the same compound, the inhibition at 1 µM against CDK1 (compound tested at 1 μM) is less than 50%; at CDK2 (compound tested at 1 μM), less than 50%; against CDK9/cyclin K (compound tested at 1 μM), less than 50%; against CDK9/cyclin T1 (compound tested at 1 μM), less than 50%; against CDK8 (compound tested at 1 μM), less than 50%; against CDK5/p25 (compound tested at 1 μM, p25 co-factor), less than 50%. Further, the inhibition at 1 µM at JNK2 (compound tested at 1 μM) was greater than 70%; against CDK5/p35 (compound tested at 1 μM) it was less than 50%; at JNK1 (compound tested at 1 μM), greater than 70%. Besides, the figures for the IC50 at CDK7 and in the assay on Jurkat cells were 0.1 to 1 µM and 0.5 to 5 µM, respectively.

As to `CN(C)C/C=C/C(=O)Nc1ccc(NC(=O)N2CCCC(Nc3ncc(Cl)c(-c4c[nH]c5ccccc45)n3)C2)cc1` (stereo not drawn) [Compound 102], the IC50 on CDK7 is 0.1 to 1 µM.
